Test results published in ChEMBL document CHEMBL3044858, “Design, synthesis, and biological evaluation of new 4-thiazolidinone derivatives substituted with benzimidazole ring as potential chemotherapeutic agents” (Med Chem Res, 2013).
Active and inactive are the calls of the source. The rule behind the calls is not given here.

Legend:
HepG2 [1] = assay: Anticancer activity against Homo sapiens (human) HepG2 cells assessed as cell growth at 100 uM after 48 hr by SRB assay; assay type: functional, cell-based; conditions: HepG2, 48 h; for growth at 100 µM: read-out: Activity
HCT-116 [2] = assay: Anticancer activity against Homo sapiens (human) HCT116 cells assessed as cell growth at 100 uM after 48 hr by SRB assay; assay type: functional, cell-based; conditions: HCT-116, 48 h; for growth at 100 µM: read-out: Activity
MCF7 [3] = assay: Anticancer activity against Homo sapiens (human) MCF7 cells assessed as cell growth at 100 uM after 48 hr by SRB assay; assay type: functional, cell-based; conditions: MCF7, 48 h; for growth at 100 µM: read-out: Activity
MCF7 [4] = assay: Anticancer activity against Homo sapiens (human) MCF7 cells assessed as growth inhibition after 48 hr by SRB assay; assay type: functional, cell-based; conditions: MCF7, 48 h
Hepatitis C virus [5] = assay: Antiviral activity against Hepatitis C virus infected HepG2 cells assessed as disappearance of (+) and or (-) strands of viral RNA at 0.077 uM after 96 hr by qualitative RT-PCR analysis; assay type: functional, organism-based; conditions: Hepacivirus hominis
Blood = assay: Toxicity in Homo sapiens (human) blood assessed as hemolysis
[6] = Cytotoxicity against lymphocytes in Homo sapiens (human) whole blood assessed as inhibition of cell viability after 24 to 96 hr by neutral red uptake assay; assay type: tissue-based; conditions: Lymphocyte
Hepatitis C virus [7] = assay: Antiviral activity against Hepatitis C virus isolated from PBMC of infected patient assessed as disappearance of (+) and or (-) strands of viral RNA at 0.077 uM after 96 hr by qualitative RT-PCR analysis; assay type: functional, organism-based; conditions: Hepacivirus hominis
[8] = biological target: T1, Arylamine N-acetyltransferase 1 (Homo sapiens, UniProt P18440); assay: Inhibition of Homo sapiens (human) arylamine N-acetyltransferase 1
T1 sequence (P18440 whole entry): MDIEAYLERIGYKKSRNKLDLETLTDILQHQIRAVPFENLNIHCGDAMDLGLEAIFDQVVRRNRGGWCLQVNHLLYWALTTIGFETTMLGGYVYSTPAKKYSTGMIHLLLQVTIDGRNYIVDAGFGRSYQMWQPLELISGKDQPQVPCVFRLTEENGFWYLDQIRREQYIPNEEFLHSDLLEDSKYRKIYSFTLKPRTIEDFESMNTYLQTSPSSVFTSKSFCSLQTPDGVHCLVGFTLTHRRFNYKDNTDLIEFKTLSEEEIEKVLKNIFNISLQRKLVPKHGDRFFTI

Hepatitis C virus [9] = assay: Antiviral activity against Hepatitis C virus infected HepG2 cells assessed as disappearance of (+) and or (-) strands of viral RNA at 0.078 uM after 96 hr by qualitative RT-PCR analysis; assay type: functional, organism-based; conditions: Hepacivirus hominis
Hepatitis C virus [10] = assay: Antiviral activity against Hepatitis C virus isolated from PBMC of infected patient assessed as disappearance of (+) and or (-) strands of viral RNA at 0.078 uM after 96 hr by qualitative RT-PCR analysis; assay type: functional, organism-based; conditions: Hepacivirus hominis
HCT-116 [11] = assay: Anticancer activity against Homo sapiens (human) HCT116 cells assessed as growth inhibition after 48 hr by SRB assay; assay type: functional, cell-based; conditions: HCT-116, 48 h
Hepatitis C virus [12] = assay: Antiviral activity against Hepatitis C virus infected in HepG2 cells assessed as disappearance of (+) and or (-) strands of viral RNA at 0.312 uM after 96 hr by qualitative RT-PCR analysis; assay type: functional, organism-based; conditions: Hepacivirus hominis
HepG2 [13] = assay: Anticancer activity against Homo sapiens (human) HepG2 cells assessed as growth inhibition after 48 hr by SRB assay; assay type: functional, cell-based; conditions: HepG2, 48 h
Hepatitis C virus [14] = assay: Antiviral activity against Hepatitis C virus isolated from PBMC of infected patient assessed as disappearance of (+) and or (-) strands of viral RNA at 0.312 uM after 96 hr by qualitative RT-PCR analysis; assay type: functional, organism-based; conditions: Hepacivirus hominis
Hepatitis C virus [15] = assay: Antiviral activity against Hepatitis C virus infected HepG2 cells assessed as disappearance of (+) and or (-) strands of viral RNA at 0.30 uM after 96 hr by qualitative RT-PCR analysis; assay type: functional, organism-based; conditions: Hepacivirus hominis
Hepatitis C virus [16] = assay: Antiviral activity against Hepatitis C virus isolated from PBMC of infected patient assessed as disappearance of (+) and or (-) strands of viral RNA at 0.30 uM after 96 hr by qualitative RT-PCR analysis; assay type: functional, organism-based; conditions: Hepacivirus hominis
Hepatitis C virus [17] = assay: Antiviral activity against Hepatitis C virus infected in HepG2 cells assessed as disappearance of (+) and or (-) strands of viral RNA at 0.394 uM after 96 hr by qualitative RT-PCR analysis; assay type: functional, organism-based; conditions: Hepacivirus hominis
Hepatitis C virus [18] = assay: Antiviral activity against Hepatitis C virus isolated from PBMC of infected patient assessed as disappearance of (+) and or (-) strands of viral RNA at 0.394 uM after 96 hr by qualitative RT-PCR analysis; assay type: functional, organism-based; conditions: Hepacivirus hominis
Hepatitis C virus [19] = assay: Antiviral activity against Hepatitis C virus infected HepG2 cells assessed as disappearance of (+) and or (-) strands of viral RNA at 1.116 uM after 96 hr by qualitative RT-PCR analysis; assay type: functional, organism-based; conditions: Hepacivirus hominis
Hepatitis C virus [20] = assay: Antiviral activity against Hepatitis C virus isolated from PBMC of infected patient assessed as disappearance of (+) and or (-) strands of viral RNA at 1.116 uM after 96 hr by qualitative RT-PCR analysis; assay type: functional, organism-based; conditions: Hepacivirus hominis
Hepatitis C virus [21] = assay: Antiviral activity against Hepatitis C virus infected HepG2 cells assessed as disappearance of (+) and or (-) strands of viral RNA at 0.108 uM after 96 hr by qualitative RT-PCR analysis; assay type: functional, organism-based; conditions: Hepacivirus hominis
Hepatitis C virus [22] = assay: Antiviral activity against Hepatitis C virus isolated from PBMC of infected patient assessed as disappearance of (+) and or (-) strands of viral RNA at 0.108 uM after 96 hr by qualitative RT-PCR analysis; assay type: functional, organism-based; conditions: Hepacivirus hominis
Hepatitis C virus [23] = assay: Antiviral activity against Hepatitis C virus infected HepG2 cells assessed as disappearance of (+) and or (-) strands of viral RNA at 0.611 uM after 96 hr by qualitative RT-PCR analysis; assay type: functional, organism-based; conditions: Hepacivirus hominis
Hepatitis C virus [24] = assay: Antiviral activity against Hepatitis C virus isolated from PBMC of infected patient assessed as disappearance of (+) and or (-) strands of viral RNA at 0.611 uM after 96 hr by qualitative RT-PCR analysis; assay type: functional, organism-based; conditions: Hepacivirus hominis
Hepatitis C virus [25] = assay: Antiviral activity against Hepatitis C virus infected HepG2 cells assessed as disappearance of (+) and or (-) strands of viral RNA at 0.647 uM after 96 hr by qualitative RT-PCR analysis; assay type: functional, organism-based; conditions: Hepacivirus hominis
Hepatitis C virus [26] = assay: Antiviral activity against Hepatitis C virus isolated from PBMC of infected patient assessed as disappearance of (+) and or (-) strands of viral RNA at 0.647 uM after 96 hr by qualitative RT-PCR analysis; assay type: functional, organism-based; conditions: Hepacivirus hominis
Hepatitis C virus [27] = assay: Antiviral activity against Hepatitis C virus infected HepG2 cells assessed as disappearance of (+) and or (-) strands of viral RNA at 0.295 uM after 96 hr by qualitative RT-PCR analysis; assay type: functional, organism-based; conditions: Hepacivirus hominis
Hepatitis C virus [28] = assay: Antiviral activity against Hepatitis C virus isolated from PBMC of infected patient assessed as disappearance of (+) and or (-) strands of viral RNA at 0.295 uM after 96 hr by qualitative RT-PCR analysis; assay type: functional, organism-based; conditions: Hepacivirus hominis

Row | SMILES | growth at 100 µM (HepG2 [1]) | growth at 100 µM (HCT-116 [2]) | growth at 100 µM (MCF7 [3]) | IC50 (MCF7 [4]) | Activity (Blood) | IC50 [6] | other results
1 | O=C1/C(=C\c2ccc([N+](=O)[O-])cc2)S/C(=N\c2ccccc2)N1Cc1nc2ccccc2[nH]1 | 24% | 18% | -0.79% |  |  |  | 
2 | O=C1/C(=C/c2ccccc2Cl)SC(=S)N1Cc1nc2ccccc2[nH]1 | 9.07% | 27.6% | -4.32% | 39.6 µM |  |  | 
3 | COc1ccc(OC)c(/C=C2\SC(=S)N(Cc3nc4ccccc4[nH]3)C2=O)c1 | 18.6% | 20.8% | -2.27% | 27.7 µM | Non-toxic | 39 µM | Activity (Hepatitis C virus [5]): inactive; Activity (Hepatitis C virus [7]): inactive
4 | O=C1NC(=O)/C(=C/c2ccccc2O)S1 |  |  |  |  |  |  | IC50 [8]: 1.1 µM
5 | O=C1/C(=C/C=C/c2ccccc2)SC(=S)N1Cc1nc2ccccc2[nH]1 | 14.2% | 21.2% | -3.93% | 37.4 µM |  |  | 
6 | O=C1/C(=C/c2ccc([N+](=O)[O-])cc2)SC(=S)N1Cc1nc2ccccc2[nH]1 |  |  |  | 39.4 µM | Non-toxic | 39.5 µM | Activity (Hepatitis C virus [9]): inactive; Activity (Hepatitis C virus [10]): inactive
7 | O=C1/C(=C\c2ccccc2)S/C(=N\c2ccccc2)N1Cc1nc2ccccc2[nH]1 | 24.4% | 7% | -0.69% |  |  |  | IC50 (HCT-116 [11]): 7.3 µM
8 | O=C1Nc2ccccc2/C1=C1/S/C(=N\c2ccccc2)N(Cc2nc3ccccc3[nH]2)C1=O |  |  |  |  | Non-toxic | 15.6 µM | Activity (Hepatitis C virus [12]): inactive; IC50 (HepG2 [13]): 5.91 µM; IC50 (HepG2 [1]): 6.8 µM; IC50 (HCT-116 [2]): 16.2 µM; IC50 (MCF7 [3]): 7.07 µM; Activity (Hepatitis C virus [14]): inactive
9 | COc1ccc(/C=C2/S/C(=N\c3ccccc3)N(Cc3nc4ccccc4[nH]3)C2=O)c(OC)c1 | 18.4% | 15.5% | -1.19% |  |  |  | 
10 | CC(=O)NS(=O)(=O)c1ccc(N/N=C2/SC(=S)N(Cc3nc4ccccc4[nH]3)C2=O)cc1 |  |  |  |  | Non-toxic | 15.3 µM | Activity (Hepatitis C virus [15]): inactive; Activity (Hepatitis C virus [16]): inactive
11 | COc1ccc(/C=C2\SC(=S)N(Cc3nc4ccccc4[nH]3)C2=O)c(OC)c1 | 17.8% | 19.2% | 0.34% |  |  |  | 
12 | O=C1/C(=C/c2ccccc2)SC(=S)N1Cc1nc2ccccc2[nH]1 |  |  |  | 35.1 µM |  |  | 
13 | Cc1ccc(/N=C2\S/C(=C\c3ccc(Cl)cc3)C(=O)N2Cc2nc3ccccc3[nH]2)cc1 |  |  |  |  | Non-toxic | 19.7 µM | Activity (Hepatitis C virus [17]): inactive; Activity (Hepatitis C virus [18]): inactive
14 | O=C1Nc2ccccc2/C1=C1/SC(=S)N(Cc2nc3ccccc3[nH]2)C1=O |  |  |  | 35.4 µM | Non-toxic | 55.8 µM | Activity (Hepatitis C virus [19]): inactive; Activity (Hepatitis C virus [20]): inactive
15 | COc1ccc(/C=C2\SC(=S)N(Cc3nc4ccccc4[nH]3)C2=O)cc1 | 11.8% | 16.2% | -5.75% | 46.7 µM | Non-toxic | 54.3 µM | Activity (Hepatitis C virus [21]): inactive; Activity (Hepatitis C virus [22]): inactive
16 | O=C1/C(=N\Nc2ccc(S(=O)(=O)Nc3ncccn3)cc2)SC(=S)N1Cc1nc2ccccc2[nH]1 |  |  |  |  | Non-toxic | 30.6 µM | Activity (Hepatitis C virus [23]): inactive; Activity (Hepatitis C virus [24]): inactive
17 | O=C1/C(=C\c2ccccc2Cl)S/C(=N\c2ccccc2)N1Cc1nc2ccccc2[nH]1 | 18.9% | 13.8% | -1.74% | 34.8 µM |  |  | 
18 | O=C1/C(=C\c2ccc(Cl)cc2)S/C(=N\c2ccccc2)N1Cc1nc2ccccc2[nH]1 |  |  |  |  | Non-toxic | 32.4 µM | Activity (Hepatitis C virus [25]): inactive; Activity (Hepatitis C virus [26]): inactive
19 | CN(C)c1ccc(/C=C2\SC(=S)N(Cc3nc4ccccc4[nH]3)C2=O)cc1 |  |  |  |  | Non-toxic | 14.8 µM | Activity (Hepatitis C virus [27]): inactive; Activity (Hepatitis C virus [28]): inactive
